In patent publication US8247211B2, “Glycopeptide antibiotics” (American Cyanamid Company, priority 2001, dated 2012):
≈ marks a conversion by molar mass, not a printed value. Where two headings read alike, the source gives them in different places. Numbered stars: 1 amine (or outer) side, 2 acyl side, 3 side chain; on linkers, the order of the positions; unused ones are H or OH. Square brackets hold non-standard residues; d marks the D form. Peptide text beside a SMILES is read from it. ξ: configuration not given here. X1 = N=C1NCC(C(O)C(N[*:1])C(=O)[*:2])N1C1OC(CO)C(O)C(O)C1O; ξEnduracididine(βξ-OH,4'ξ) = N=C1NCC(C(O)C(N)C(=O)O)N1; Cha = N[CH](CC1CCCCC1)C(=O)O

How the values were obtained:
[1] = system: Enterococcus sp.; assay: In vitro antibacterial evaluation: minimum inhibitory concentration (MIC), broth dilution method; format: cell-based
Outline: (§1)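 Test strains, among them recent clinical isolates carrying methicillin, penicillin and/or vancomycin resistance, were inoculated at 5×10^5 CFU/mL. A broth dilution series spanning 64-0.06 μg/mL in Muller-Hinton II […] (NCCLS M7-A2) defined the MIC as the lowest growth-inhibiting concentration.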

[2] = system: Escherichia coli; assay: as above; format: cell-based
Outline: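 NCCLS M7-A2 broth dilution; Muller-Hinton II […]; 5×10^5 CFU/mL; 64-0.06 μg/mL. MIC = lowest concentration with no growth.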

[3] = system: Staphylococcus sp.; assay: as above; format: cell-based; conditions: 18 hours at 35° C.
Outline: as §1

[4] = system: Escherichia coli; assay: as above; format: cell-based; remark: listed apart in the source
[5] = system: Streptococcus sp.; assay: as above; format: cell-based; conditions: broth dilution, 18 hours at 35° C.
Outline: as §1

[6] = system: Staphylococcus aureus-SMITH (GC 4543); assay: Acute lethal infection in mice (ED50); format: in vivo; conditions: female CD-1 mice, intraperitoneal challenge, intravenous dose 30 min. after infection, 7 day survival ratios
Outline: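 Lethal systemic infection model: female CD-1 mice, 20 ± 1-2 g, intraperitoneal challenge. Single intravenous treatment 30 min after infection; 7-day survival, pooled from 3 tests, gives ED50.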

[7] = Anatomic pathology (heart and kidney histopathology) in mice; format: in vivo, CD-1 mice; conditions: 20 mg/kg intravenously daily for 9 days, microscopic histopathology on day 10
Outline: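 Juvenile CD-1 mice (20 days old; 5 vehicle, 5 treated) received glycopeptide antibiotic 20 mg/kg i.v. daily for 9 days. Necropsied tissues formalin-fixed, paraffin-embedded, H&E stained and examined microscopically; findings graded slight to severe versus controls.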

[8] = system: Escherichia coli; assay: In vitro antibacterial evaluation: minimum inhibitory concentration (MIC), broth dilution method; format: cell-based; conditions: broth dilution, 18 hours at 35° C.
[9] = broth dilution, 18 hours at 35° C.

CC=C(C)C(=O)OC1C(CO)OC(OC2C(CO)OC(Oc3ccc(CC4NC(=O)C(C(C)c5ccccc5)NC(=O)CNC(=O)C(CO)NC(=O)C(C(O)C5CNC(=N)N5C5OC(CO)C(O)C(O)C5O)NC(=O)C(C(O)C5CNC(=N)N5)NC4=O)cc3)C(O)C2O)C(O)C1O (stereo not drawn) [Example 278b, Cyclo[glycyl-β-methylphenylalanyl-O-[4-O-[4-O-(2-methylbut-2-enoyl)hexopyranosyl]-hexopyranosyl]tyrosyl-3-(2-iminoimidazolidin-4-yl)seryl-3-(3-hexopyranosyl-2-imino-imidazolidin-4-yl)serylseryl]]
MIC Enterococcus avium (GC 4558) ([1]; Enterococcus avium (GC 4558)): 32 µg/mL (≈ 23.2 µM)
MIC Enterococcus faecalis (ATCC 29212) ([1]; Enterococcus faecalis (ATCC 29212)): 32 µg/mL (≈ 23.2 µM)
MIC Enterococcus faecalis (GC 4553) ([1]; Enterococcus faecalis (GC 4553)): 32 µg/mL (≈ 23.2 µM)
MIC Enterococcus faecalis (GC 4554) ([1]; Enterococcus faecalis (GC 4554)): 32 µg/mL (≈ 23.2 µM)
MIC Enterococcus faecalis (GC 6189) ([1]; Enterococcus faecalis (GC 6189)): 32 µg/mL (≈ 23.2 µM)
MIC Enterococcus faecium (GC 2243) ([1]; Enterococcus faecium (GC 2243)): 32 µg/mL (≈ 23.2 µM)
MIC Enterococcus faecium (GC 4556) ([1]; Enterococcus faecium (GC 4556)): 32 µg/mL (≈ 23.2 µM)
MIC Enterococcus faecium (GC 4557) ([1]; Enterococcus faecium (GC 4557)): 8 µg/mL (≈ 5.81 µM)
MIC Escherichia coli (GC 4559) ([2]; Escherichia coli (GC 4559)): >64 µg/mL
MIC Escherichia coli (GC 4560) ([2]; Escherichia coli (GC 4560)): 4 µg/mL (≈ 2.9 µM)
MIC Coagulase Negative Staphylococcus (GC 4547) ([3]; Coagulase Negative Staphylococcus (GC 4547)): 4 µg/mL (≈ 2.9 µM)
MIC Coagulase Negative Staphylococcus (GC 4547) ([3]; Coagulase Negative Staphylococcus (GC 4547), broth dilution): 4 µg/mL (≈ 2.9 µM)
MIC Coagulase Negative Staphylococcus (GC 4548) ([3]; Coagulase Negative Staphylococcus (GC 4548)): 4 µg/mL (≈ 2.9 µM)
MIC Coagulase Negative Staphylococcus (GC 4548) ([3]; Coagulase Negative Staphylococcus (GC 4548), broth dilution): 4 µg/mL (≈ 2.9 µM)
MIC Coagulase Negative Staphylococcus (GC 4549) ([3]; Coagulase Negative Staphylococcus (GC 4549)): 2 µg/mL (≈ 1.45 µM)
MIC Coagulase Negative Staphylococcus (GC 4549) ([3]; Coagulase Negative Staphylococcus (GC 4549), broth dilution): 2 µg/mL (≈ 1.45 µM)
MIC Coagulase Negative Staphylococcus (GC 4551) ([3]; Coagulase Negative Staphylococcus (GC 4551)): 8 µg/mL (≈ 5.81 µM)
MIC Coagulase Negative Staphylococcus (GC 4551) ([3]; Coagulase Negative Staphylococcus (GC 4551), broth dilution): 8 µg/mL (≈ 5.81 µM)
MIC Coagulase Negative Staphylococcus (GC 6257) [3]: 2 µg/mL (≈ 1.45 µM)
MIC Coagulase Negative Staphylococcus (GC 6257) ([3]; broth dilution): 2 µg/mL (≈ 1.45 µM)
MIC Staphylococcus aureus (ATCC 29213) [3]: 8 µg/mL (≈ 5.81 µM)
MIC Staphylococcus aureus (ATCC 29213) ([3]; broth dilution): 8 µg/mL (≈ 5.81 µM)
MIC Staphylococcus aureus (GC 1131) [3]: 8 µg/mL (≈ 5.81 µM)
MIC Staphylococcus aureus (GC 1131) ([3]; broth dilution): 8 µg/mL (≈ 5.81 µM)
MIC Staphylococcus aureus (GC 3051) [3]: 4 µg/mL (≈ 2.9 µM)
MIC Staphylococcus aureus (GC 3051) ([3]; broth dilution): 4 µg/mL (≈ 2.9 µM)
MIC Staphylococcus aureus (GC 3053) [3]: 8 µg/mL (≈ 5.81 µM)
MIC Staphylococcus aureus (GC 3053) ([3]; broth dilution): 8 µg/mL (≈ 5.81 µM)
MIC Staphylococcus aureus (GC 4541) [3]: 8 µg/mL (≈ 5.81 µM)
MIC Staphylococcus aureus (GC 4541) ([3]; broth dilution): 8 µg/mL (≈ 5.81 µM)
MIC Staphylococcus aureus (GC 4542) [3]: 8 µg/mL (≈ 5.81 µM)
MIC Staphylococcus aureus (GC 4542) ([3]; broth dilution): 8 µg/mL (≈ 5.81 µM)
MIC Staphylococcus aureus (GC 4544) [3]: 8 µg/mL (≈ 5.81 µM)
MIC Staphylococcus aureus (GC 4544) ([3]; broth dilution): 8 µg/mL (≈ 5.81 µM)
MIC Staphylococcus aureus (GC 4545) [3]: 4 µg/mL (≈ 2.9 µM)
MIC Staphylococcus aureus (GC 4545) ([3]; broth dilution): 4 µg/mL (≈ 2.9 µM)
MIC Staphylococcus aureus-SMITH (GC 4543) ([3]; Staphylococcus aureus-SMITH (GC 4543)): 8 µg/mL (≈ 5.81 µM)
MIC Staphylococcus aureus-SMITH (GC 4543) ([3]; Staphylococcus aureus-SMITH (GC 4543), broth dilution): 8 µg/mL (≈ 5.81 µM)
MIC Staphylococcus haemolyticus (GC 4546) ([3]; Staphylococcus haemolyticus (GC 4546)): 4 µg/mL (≈ 2.9 µM)
MIC Staphylococcus haemolyticus (GC 4546) ([3]; Staphylococcus haemolyticus (GC 4546), broth dilution): 4 µg/mL (≈ 2.9 µM)
MIC Escherichia coli (ATCC 25922) [4]: >64 µg/mL

N=C1NCC(C(O)C2NC(=O)C(CC3CCCCC3)NC(=O)C(CC3CCCCC3)NC(=O)CNC(=O)C(CO)NC(=O)C(C(O)C3CNC(=N)N3C3OC(CO)C(O)C(O)C3O)NC2=O)N1 (stereo not drawn) [Example 52, Cyclo[3-cyclohexylalanyl-3-cyclohexylalanyl-3-(2-iminoimidazolidin-4-yl)seryl-3-(3-hexopyranosyl-2-iminoimidazolidin-4-yl)serylserylglycyl]] (cyclo(G[Cha][Cha][ξEnduracididine(βξ-OH,4'ξ)][X1]S); configuration not given here)
MIC Enterococcus avium (GC 4558) ([1]; Enterococcus avium (GC 4558), broth dilution, 18 hours at 35° C.): 32 µg/mL (≈ 33.6 µM)
MIC Enterococcus faecalis (ATCC 29212) ([1]; Enterococcus faecalis (ATCC 29212), broth dilution, 18 hours at 35° C.): 64 µg/mL (≈ 67.2 µM)
MIC Enterococcus faecalis (GC 2242) ([1]; Enterococcus faecalis (GC 2242), broth dilution, 18 hours at 35° C.): 32 µg/mL (≈ 33.6 µM)
MIC Enterococcus faecalis (GC 2691) ([1]; Enterococcus faecalis (GC 2691), broth dilution, 18 hours at 35° C.): 32 µg/mL (≈ 33.6 µM)
MIC Enterococcus faecalis (GC 3059) ([1]; Enterococcus faecalis (GC 3059), broth dilution, 18 hours at 35° C.): 32 µg/mL (≈ 33.6 µM)
MIC Enterococcus faecalis (GC 4552) ([1]; Enterococcus faecalis (GC 4552), broth dilution, 18 hours at 35° C.): 32 µg/mL (≈ 33.6 µM)
MIC Enterococcus faecalis (GC 4553) ([1]; Enterococcus faecalis (GC 4553), broth dilution, 18 hours at 35° C.): 16 µg/mL (≈ 16.8 µM)
MIC Enterococcus faecalis (GC 4554) ([1]; Enterococcus faecalis (GC 4554), broth dilution, 18 hours at 35° C.): 64 µg/mL (≈ 67.2 µM)
MIC Enterococcus faecalis (GC 6189) ([1]; Enterococcus faecalis (GC 6189), broth dilution, 18 hours at 35° C.): 32 µg/mL (≈ 33.6 µM)
MIC Enterococcus faecium (GC 2243) ([1]; Enterococcus faecium (GC 2243), broth dilution, 18 hours at 35° C.): 16 µg/mL (≈ 16.8 µM)
MIC Enterococcus faecium (GC 4556) ([1]; Enterococcus faecium (GC 4556), broth dilution, 18 hours at 35° C.): 32 µg/mL (≈ 33.6 µM)
MIC Enterococcus faecium (GC 4557) ([1]; Enterococcus faecium (GC 4557), broth dilution, 18 hours at 35° C.): 8 µg/mL (≈ 8.39 µM)
MIC Enterococcus avium (GC 4558) [1, 9]: 32 µg/mL (≈ 33.6 µM)
MIC Enterococcus faecalis (ATCC 29212) [1, 9]: 64 µg/mL (≈ 67.2 µM)
MIC Enterococcus faecalis (GC 2242) [1, 9]: 32 µg/mL (≈ 33.6 µM)
MIC Enterococcus faecalis (GC 2691) [1, 9]: 32 µg/mL (≈ 33.6 µM)
MIC Enterococcus faecalis (GC 3059) [1, 9]: 32 µg/mL (≈ 33.6 µM)
MIC Enterococcus faecalis (GC 4552) [1, 9]: 32 µg/mL (≈ 33.6 µM)
MIC Enterococcus faecalis (GC 4553) [1, 9]: 16 µg/mL (≈ 16.8 µM)
MIC Enterococcus faecalis (GC 4554) [1, 9]: 64 µg/mL (≈ 67.2 µM)
MIC Enterococcus faecalis (GC 6189) [1, 9]: 32 µg/mL (≈ 33.6 µM)
MIC Enterococcus faecium (GC 2243) [1, 9]: 16 µg/mL (≈ 16.8 µM)
MIC Enterococcus faecium (GC 4556) [1, 9]: 32 µg/mL (≈ 33.6 µM)
MIC Enterococcus faecium (GC 4557) [1, 9]: 8 µg/mL (≈ 8.39 µM)
MIC Coagulase Negative Staphylococcus (GC 4547) ([3]; broth dilution): 8 µg/mL (≈ 8.39 µM)
MIC Coagulase Negative Staphylococcus (GC 4548) ([3]; broth dilution): 8 µg/mL (≈ 8.39 µM)
MIC Coagulase Negative Staphylococcus (GC 4549) ([3]; broth dilution): 4 µg/mL (≈ 4.2 µM)
MIC Coagulase Negative Staphylococcus (GC 4551) ([3]; broth dilution): 8 µg/mL (≈ 8.39 µM)
MIC Staphylococcus aureus SMITH (GC 4543) ([3]; broth dilution): 16 µg/mL (≈ 16.8 µM)
MIC Staphylococcus haemolyticus (GC 4546) ([3]; broth dilution): 4 µg/mL (≈ 4.2 µM)
MIC Staphylococcus aureus-SMITH (GC 4543) ([3]; strain SMITH GC 4543, broth dilution): 16 µg/mL (≈ 16.8 µM)
MIC Streptococcus agalactiae (GC 4564) ([5]; Streptococcus agalactiae (GC 4564)): 8 µg/mL (≈ 8.39 µM)
MIC Streptococcus pneumoniae (ATCC 6301) ([5]; Streptococcus pneumoniae (ATCC 6301)): 8 µg/mL (≈ 8.39 µM)
MIC Streptococcus pneumoniae (GC 1894) ([5]; Streptococcus pneumoniae (GC 1894)): 8 µg/mL (≈ 8.39 µM)
MIC Streptococcus pneumoniae (GC 4565) ([5]; Streptococcus pneumoniae (GC 4565)): 16 µg/mL (≈ 16.8 µM)
MIC Streptococcus pyogenes (GC 4563) ([5]; Streptococcus pyogenes (GC 4563)): 8 µg/mL (≈ 8.39 µM)
MIC Streptococcus agalactiae (GC 4564) [5]: 8 µg/mL (≈ 8.39 µM)
MIC Streptococcus pneumoniae (ATCC 6301) [5]: 8 µg/mL (≈ 8.39 µM)
MIC Streptococcus pneumoniae (GC 1894) [5]: 8 µg/mL (≈ 8.39 µM)
MIC Streptococcus pneumoniae (GC 4565) [5]: 16 µg/mL (≈ 16.8 µM)
MIC Streptococcus pyogenes (GC 4563) [5]: 8 µg/mL (≈ 8.39 µM)
median effective dose (ED50), Staphylococcus aureus-SMITH (GC 4543) [6]: >4
Anatomical Pathology (Day 10), Heart [7]: 0
Anatomical Pathology (Day 10), Kidney [7]: +++
MIC Escherichia coli (ATCC 25922) [8]: 64 µg/mL (≈ 67.2 µM)
MIC Escherichia coli (GC 4559) [8]: 64 µg/mL (≈ 67.2 µM)
MIC Escherichia coli (GC 4560) [8]: 16 µg/mL (≈ 16.8 µM)
